Legend:
[1] = test system: murine retinal pigment epithelial cells; experiment: Test on inhibition of three-dimensional collagen gel atrophy in murine retinal pigment epithelial cell; format: cell-based, mouse; conditions: 1 ng/ml TGF-B2; 0.01, 0.1 or 1 μM; gel diameter after 24 hours; FIG. 1
Description: (Test on Inhibition of Three-Dimensional Collagen Gel Atrophy in Murine Retinal Pigment Epithelial Cell)
Murine retinal pigment epithelial cells were used to assess the inhibition effect of a tested compound on three-dimensional collagen gel atrophy in accordance with the method of Nishida et al (Investigative Ophthalmology & Visual Science 42: 1247-1253 (2001)). A subretinal sheet-like pigment epithelial cell comprising a retinal pigment epithelial cell from a mouse eyeball was collected and grown in primary culture. The cultured cell was detached and collected from a culture slide with 0.05% Trypsin-EDTA. After washing twice in a serum free medium (MEM: product number 11095; Gibco), a serum-free medium was added to make a cell suspension. Type I collagen (3 mg/ml: product number 637-00653; Nitta Gelatin Inc.), 10×MEM, reconstitution buffer (product number 635-00791; Nitta Gelatin Inc.), cell suspension (1.1×10^7 cells/ml in MEM), and water were mixed on ice at the volume ratio of 7:1:1:0.2:1.8. A culture dish coated with 1% BSA was inoculated with the mixture (0.5 ml), which was incubated for one hour at 37° C. to make a collagen gel. Then, 0.5 ml each of serum free media, to which 1 ng/ml of TGF-B2 (R&D) and 0, 0.01, 0.1, or 1 μM of the benzoic acid of the invention were added, was added onto collagen gels and incubated at 37° C. The diameter of gels was measured after 24 hours. […]

[2] = test system: murine subretinal scar model; experiment: Test on inhibition of murine subretinal scar formation; format: in vivo, mouse C57BL/6; conditions: 7 days after injection
Description: (Test on Inhibition of Murine Subretinal Scar Formation)
A murine subretinal scar model was produced to study whether the benzoic acid of the invention has an effect of inhibiting subretinal scar formation. A subretinal scar model in a mouse was produced by the method shown below in accordance with the method of Young-joon et al (Investigative Ophthalmology & Visual Science, 52, 6089-6095([…])).
(Production of Murine Subretinal Scar Model)
First, laser was irradiated (0.05 seconds, 200 mW, 532 nm) onto one location on the posterior pole of fundus of mouse C57BL/6 (purchased from SLC) to destroy the Bruch's membrane, which enabled infiltration of inflammatory cells from the choroid as well as creation of air bubbles subretinally.
A 33G needle was then inserted from pars plana. 0.5 μl of 4×10^7 ml thioglycollate elicited peritoneal macrophage and 1 μg, 5 μg, or 50 μg of the benzoic acid of the invention were subretinally injected. For the control, the benzoic acid of the invention was not injected (0 μg).
The subretinal area was observed and subretinal scar region was measure 7 days after injection of the macrophage and the benzoic acid of the invention described above.

Question: Which results are given for `CC1(C)CCC(C)(C)c2cc(Cn3cccn3)c(/C=C/c3ccc(C(=O)O)cc3)cc21` [benzoic acid of the invention, (E)-4-(2-{3-[(1H-pyrazole-1-yl)methyl]-5,5,8,8-tetramethyl-5,6,7,8-tetrahydronaphthalene-2-yl}vinyl)benzoic acid]?
Answer: collagen atrophy due to TGF (diameter of collagen gel) [1]: can inhibit collagen atrophy due to TGF; subretinal scar region (fibrillation region) ([2]; 1 μg, 5 μg or 50 μg subretinally injected with macrophages, FIG. 2B): narrows as the amount of injection of the benzoic acid of the invention increases; formation of a subretinal scar (subretinal observation) ([2]; 50 μg subretinally injected with macrophages, in comparison to the control, FIG. 2A): formation of a scar was inhibited

Source: US12357613B2, “Inhibitor for retinochoroidal disorders” (YAMAGUCHI UNIVERSITY, priority 2013, dated 2025)
